Results on 9 molecules are retold here after the Kinase Knowledgebase extract (Sharma et al. 2016).

For one experiment, the target named is MAPK14 (UniProt Q16539). In words: MAPK14 (p38) Inhibition. Particulars: concentration not given here.
Sequence of MAPK14 (Q16539 whole entry, looked up): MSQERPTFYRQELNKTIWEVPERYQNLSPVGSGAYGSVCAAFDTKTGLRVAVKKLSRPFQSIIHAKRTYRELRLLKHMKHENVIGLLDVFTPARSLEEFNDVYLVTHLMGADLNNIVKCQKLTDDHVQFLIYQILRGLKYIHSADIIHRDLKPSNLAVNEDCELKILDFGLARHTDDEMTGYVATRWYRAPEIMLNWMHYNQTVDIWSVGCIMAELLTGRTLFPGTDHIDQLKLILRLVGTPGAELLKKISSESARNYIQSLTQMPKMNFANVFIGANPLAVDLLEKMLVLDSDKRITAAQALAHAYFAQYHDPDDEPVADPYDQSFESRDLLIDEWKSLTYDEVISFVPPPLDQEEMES
The molecule `Fc1ccc(-c2[nH]c(C=C(Br)Br)nc2-c2ccncc2)cc1` yielded an inhibition of 93%. `C[Si](C)(C)CCOCn1c(C=C(Br)Br)nc(-c2ccncc2)c1-c1ccc(F)cc1` yielded an inhibition of 16%. `OCCCCC#Cc1nc(-c2ccc(F)cc2)c(-c2ccncc2)n1CCCc1ccccc1` registered an inhibition of 98%. The molecule `OCCCC#Cc1nc(-c2ccc(F)cc2)c(-c2ccncc2)n1CCCc1ccccc1` registered an inhibition of 99%.

The target of another experiment is MAPK14 (human) (UniProt Q16539). Nature of the experiment: TNF-alpha Inhibition (PBMC).
Sequence of MAPK14 (human) (Q16539 whole entry, looked up): as above
Conditions: not given
`C[Si](C)(C)CCOCn1c(C#CCCCC#N)nc(-c2ccncc2)c1-c1ccc(F)cc1` gave an IC50 greater than 2000 nM. As to `C[Si](C)(C)CCOCn1c(C#CCCCCO)nc(-c2ccncc2)c1-c1ccc(F)cc1`, the IC50 was greater than 2000 nM.

`O[C@@H](C#Cc1nc(-c2ccncc2)c(-c2ccc(F)cc2)[nH]1)c1ccccc1` gave an IC50 of 400 nM.

As for `CCCCCCC#Cc1nc(-c2ccc(F)cc2)c(-c2ccncc2)n1CCCc1ccccc1`, the 50% inhibitory concentration (IC50) amounted to 90 nM.

The next experiment concerns MAPK14 (BALB/cJ mice). Nature of the experiment: TNF-alpha Inhibition (Mice Model). Particulars: dose or concentration not given here.
The molecule `N#CCCCC#Cc1nc(-c2ccc(F)cc2)c(-c2ccncc2)[nH]1` registered an inhibition of 95%.

By inhibition is commonly meant the percentage by which the read-out fell short of the control. A lower inhibition goes with a response near the control. A word on the IC50: it is the midpoint of a concentration-inhibition curve. The low end stands for greater potency in that assay, the high end for weaker potency in that assay.
